In the Deep4Chem optical property database:
Where “and” joins values, the source holds several entries; their conditions need not be identical. Equal entries are not always repeated. One block for each compound: values may come before it.

Assay: photoluminescence quantum yield (fraction); solvent given as SMILES

Structure (SMILES): N#Cc1cc(-n2c3ccccc3c3ccccc32)c(-n2c3ccccc3c3ccccc32)cc1-c1cc(-n2c3ccccc3c3ccccc32)c(-n2c3ccccc3c3ccccc32)cc1C#N
photoluminescence quantum yield (in Cc1ccccc1): 0.46

Structure (SMILES): C[Si](C)(C)C#CC(C#C[Si](C)(C)C)=Cc1ccc(C=C(C#C[Si](C)(C)C)C#C[Si](C)(C)C)cc1
photoluminescence quantum yield (in ClC(Cl)Cl): 0.01 and 0.03

Structure (SMILES): Fc1c(F)c(F)c([B-]2(c3c(F)c(F)c(F)c(F)c3F)Oc3c(ccc4c5c(ccc34)C=[N+](c3ccccc3)[B-](c3c(F)c(F)c(F)c(F)c3F)(c3c(F)c(F)c(F)c(F)c3F)O5)C=[N+]2c2ccccc2)c(F)c1F
photoluminescence quantum yield (in Cc1ccccc1): 0.81
photoluminescence quantum yield (in ClCCl): 0.8

Structure (SMILES): O=c1c2ccccc2sc2ccc(-n3c4ccccc4c4ccccc43)cc12
photoluminescence quantum yield (in O=P(c1ccccc1)(c1ccccc1)c1ccccc1Oc1ccccc1P(=O)(c1ccccc1)c1ccccc1): 0.512

Structure (SMILES): COc1ccc(-c2csc(/C(C#N)=N\Nc3ccc(C#N)cc3)n2)cc1
photoluminescence quantum yield (in CC#N): 0.001
photoluminescence quantum yield (in CCO): 0.002
photoluminescence quantum yield (in CN(C)C=O): 0
photoluminescence quantum yield (in Cc1ccccc1): 0.002
photoluminescence quantum yield (in ClCCl): 0.002

Structure (SMILES): COc1cc2c3c4c(c5ccc(C(C)(C)C)cc5c5c(OC)cc(OC)c(c2c(OC)c1OC)c45)=[N+]1C3=Nc2c3c4cc(OC)c(OC)c(OC)c4c4c(OC)cc(OC)c5c6cc(C(C)(C)C)ccc6c(c3c54)n2[B-]1(F)F
photoluminescence quantum yield (in Cc1ccccc1): 0.13

Structure (SMILES): N#Cc1nn(-c2ccc(Cl)cc2)nc1N1CCCC1
photoluminescence quantum yield (in CC#N): 0.829

Structure (SMILES): CC1=CC(C)=[N+]2C1=Cc1c(C)c(C3=C(C)C4=Cc5c(C)cc(C)n5[B-](F)(F)[N+]4=C3C)c(C)n1[B-]2(F)F
photoluminescence quantum yield (in ClCCl): 0.66

Structure (SMILES): COC(=O)c1nc(-c2ccccc2)oc1C
photoluminescence quantum yield (in C1CCCCC1): 0.36
photoluminescence quantum yield (in CC#N): 0.38
photoluminescence quantum yield (in CCO): 0.47
photoluminescence quantum yield (in CCOC(C)=O): 0.44
photoluminescence quantum yield (in O): 0.34

Structure (SMILES): CC1(C)C(/C=C/C=C/C=C/C=C2/N(c3ccc(S(=O)(=O)[O-])cc3)c3ccc(S(=O)(=O)[O-])cc3C2(C)C)=[N+](c2ccc(S(=O)(=O)[O-])cc2)c2ccc(S(=O)(=O)[O-])cc21
photoluminescence quantum yield (in CO): 0.47
photoluminescence quantum yield (in O): 0.21

Structure (SMILES): c1ccc(N(c2ccccc2)c2ccc(-c3ncnc4ccccc34)cc2)cc1
photoluminescence quantum yield (in ClCCl): 0.93

Structure (SMILES): Cc1cc(-c2ccc(C(C)(C)C)cc2)c2nsnc2c1-c1ccc(C(C)(C)C)cc1
photoluminescence quantum yield (in ClCCl): 0.14

Structure (SMILES): CCCCCCCCCCC(CCCCCCCCCC)Cn1c2cc(-c3ccc(C(C)(C)C)cc3)c3cccc4c5ccc6c7cc(-c8cc(C(C)(C)C)cc(C(C)(C)C)c8)n8c7c(c7cc1c(c5c76)c2c34)=C1C=CC(c2cc(C(C)(C)C)cc(C(C)(C)C)c2)=[N+]1[B-]8(F)F
photoluminescence quantum yield (in Cc1ccccc1): 0.008

Structure (SMILES): CN(C)c1ccc(-c2ccc(-c3cc(-c4ccccc4)c(-c4ccccc4)c(-c4ccccc4)c3-c3ccccc3)s2)cc1
photoluminescence quantum yield (in ClC(Cl)Cl): 0.35

Second part, the compound after the results:

photoluminescence quantum yield (in CO): 0.52
Structure (SMILES): Cc1cc(C)c(B(c2ccsc2-c2sccc2P(=O)(c2ccccc2)c2ccccc2)c2c(C)cc(C)cc2C)c(C)c1

photoluminescence quantum yield (in C1CCOC1): 0.54
photoluminescence quantum yield (in CC#N): 0.03
photoluminescence quantum yield (in ClC(Cl)Cl): 0.5
photoluminescence quantum yield (in ClCCl): 0.46
Structure (SMILES): COc1cc(/C=C/c2nc3ccccc3s2)c(OC)cc1/C=C/c1nc(C)nc(/C=C/c2cc(OC)c(/C=C/c3nc4ccccc4s3)cc2OC)n1

photoluminescence quantum yield (in CO): 1
Structure (SMILES): COC(=O)COc1ccc(/C=C/C2=[N+]3C(=C(c4ccccc4)c4c(C)cc(C)n4[B-]3(F)F)C(C)=C2)cc1

photoluminescence quantum yield (in CCO): 0.0473
photoluminescence quantum yield (in ClCCl): 0.0242
Structure (SMILES): Oc1ccc(-c2cccs2)cc1-c1nc2ccccc2s1

photoluminescence quantum yield (in ClC(Cl)Cl): 0.46
Structure (SMILES): CN(C)c1ccc(-c2cc(-c3cccs3)nc(-c3ccccc3)n2)cc1

photoluminescence quantum yield (in ClC(Cl)Cl): 0.961
Structure (SMILES): c1ccc2c(-c3ccncc3)c3c(nc2c1)-c1cc2c(cc1CC3)-c1nc3ccccc3c(-c3ccncc3)c1CC2

photoluminescence quantum yield (in c1cc(-c2cccc(-n3c4ccccc4c4ccccc43)c2)cc(-n2c3ccccc3c3ccccc32)c1): 1
Structure (SMILES): Cc1cc(-c2nc(-c3ccccc3)nc(-c3ccccc3)n2)ccc1-c1ccc2c(c1)C1(c3ccccc3-c3ccccc31)c1ccccc1N2c1ccccc1
